Reference: patent US6528517B1, “Synthesis of quinobenzoxazine analogues with topoisomerase II and quadruplex interactions for use as antineoplastic agents” (Board of Regents, The University of Texas System, priority 1998, dated 2003)

Assays:
[1] = target: T1, human topoisomerase II (Homo sapiens, UniProt P11388); assay: Decatenation assay (catenated to decatenated KDNA); assay type: biochemical; details: drug concentration that inhibits 50% of conversion of catenated to decatenated KDNA; read-out: topoisomerase II inhibition IC50
T1 construct: purchased TopoGEN, Inc
T1 sequence (P11388 whole entry): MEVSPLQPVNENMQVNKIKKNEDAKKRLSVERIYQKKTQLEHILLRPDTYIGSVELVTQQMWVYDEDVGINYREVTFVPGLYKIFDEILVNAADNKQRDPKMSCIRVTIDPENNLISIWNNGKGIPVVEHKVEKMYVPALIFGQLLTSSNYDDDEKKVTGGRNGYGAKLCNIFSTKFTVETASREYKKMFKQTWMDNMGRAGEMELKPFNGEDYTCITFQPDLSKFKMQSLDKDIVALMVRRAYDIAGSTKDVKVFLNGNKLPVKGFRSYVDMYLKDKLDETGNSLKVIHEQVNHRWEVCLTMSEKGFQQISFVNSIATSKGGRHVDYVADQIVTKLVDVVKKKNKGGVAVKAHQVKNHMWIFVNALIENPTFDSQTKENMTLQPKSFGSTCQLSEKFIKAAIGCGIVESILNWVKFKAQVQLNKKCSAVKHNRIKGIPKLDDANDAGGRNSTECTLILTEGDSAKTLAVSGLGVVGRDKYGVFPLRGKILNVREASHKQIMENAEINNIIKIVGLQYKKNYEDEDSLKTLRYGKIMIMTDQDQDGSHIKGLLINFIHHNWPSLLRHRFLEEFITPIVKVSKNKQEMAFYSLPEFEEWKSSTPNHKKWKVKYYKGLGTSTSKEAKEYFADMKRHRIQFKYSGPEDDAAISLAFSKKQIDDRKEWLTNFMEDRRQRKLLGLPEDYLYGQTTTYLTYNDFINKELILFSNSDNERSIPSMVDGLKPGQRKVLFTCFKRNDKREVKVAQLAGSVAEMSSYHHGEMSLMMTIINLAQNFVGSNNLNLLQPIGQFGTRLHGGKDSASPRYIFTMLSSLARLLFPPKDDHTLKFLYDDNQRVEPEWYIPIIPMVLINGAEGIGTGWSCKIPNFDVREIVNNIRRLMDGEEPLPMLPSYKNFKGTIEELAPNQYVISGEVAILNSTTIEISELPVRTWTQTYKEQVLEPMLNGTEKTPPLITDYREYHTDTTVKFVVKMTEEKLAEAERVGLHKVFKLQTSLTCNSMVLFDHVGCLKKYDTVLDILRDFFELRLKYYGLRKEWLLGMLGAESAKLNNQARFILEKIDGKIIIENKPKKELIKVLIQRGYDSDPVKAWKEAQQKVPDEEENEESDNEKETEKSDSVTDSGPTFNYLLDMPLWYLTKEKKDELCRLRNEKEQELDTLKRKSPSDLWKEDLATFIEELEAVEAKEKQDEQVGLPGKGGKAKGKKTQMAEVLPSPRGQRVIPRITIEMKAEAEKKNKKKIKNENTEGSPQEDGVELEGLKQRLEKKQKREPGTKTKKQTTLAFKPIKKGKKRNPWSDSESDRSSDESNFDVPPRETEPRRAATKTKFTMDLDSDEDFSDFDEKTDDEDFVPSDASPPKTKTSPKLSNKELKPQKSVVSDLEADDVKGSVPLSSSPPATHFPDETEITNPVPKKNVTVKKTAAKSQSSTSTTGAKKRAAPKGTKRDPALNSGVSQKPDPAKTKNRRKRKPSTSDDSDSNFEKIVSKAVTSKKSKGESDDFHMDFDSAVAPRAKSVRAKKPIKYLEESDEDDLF
Experimental: Kinetoplast DNA (KDNA), human topoisomerase II (170 KDa form), and DNA Unwinding Kit including supercoiled pHOT1 DNA, relaxed DNA marker, buffers, and human topoisomerase I were purchased from TopoGEN, Inc. Agarose was purchased from Fisher. Quinobenzoxazine A-62176 (S-enantiomer) was provided by Abbott Laboratories or prepared by published procedure (Chu and Maleczka, Jr., 1987).
0.25 μg of KDNA was incubated with various concentrations of the quinobenzoxazines in a 20-μl reaction mixture containing 50 mM Tris-HCl (pH 8), 120 mM KCl, 10 mM MgCl2, and 0.5 mM each of ATP, dithiothreitol, and […] BSA for 10 min. Two units of human topoisomerase II (170 KDa form) were added to the mixture, which was then incubated at 37° C. for 30 min. The reaction was terminated with 0.1 volume of stop buffer (5% sarkosyl, 0.025% bromophenol blue, and 50% glycerol). The decatenation products were analyzed on 1% agarose gels run with 0.5 μg/ml ethidium bromide. The gels were scanned by FluoroImager and analyzed by ImageQuaNT software (Molecular Dynamics).

[2] = tested on: B16 melanoma; assay: Cancer cell growth inhibition assay (MTT); assay type: cell-based, murine
Experimental: (§1) Exponentially growing cells in 0.1 ml medium were seeded on Day 0 in 96-well microtiter plates. On Day 1, 0.1-ml aliquots of medium containing graded concentrations test agent were added in duplicate to the cell plates. After incubation at 37° C. in a humidified incubator, the plates were centrifuged briefly (1-2 min at 1000 rpm), and 100 μl of the growth medium was removed. Cell cultures were incubated with 50 μl of 3-(4,5-dimethylthiazyl-2-yl)-2,5-diphenyltetrazolium bromide MTT, 1 mg/ml in Dubecco's PBS for 4 h at 37° C. The resulting purple formazan precipitate was solubilized with 200 μl of 0.4 N HCl in isopropyl alcohol. Absorbance was quantitated using a Bio-Rad Model 3550 microplate reader at a test wavelength of 570 nm and a reference wavelength of 630 nm. Absorbance values were transferred to a 486 personal computer, and the IC50 values were determined using the computer program EZ-ED50 (Chen et al., 1993).

[3] = tested on: supercoiled pHOT1 DNA; assay: DNA unwinding assay; assay type: biochemical; details: concentration shifting topoisomers to the middle position between relaxed and supercoiled bands
Experimental: A 22 μl mixture of 0.25 μg of supercoiled pHOT1 DNA, 5 units of topoisomerase I in topoisomerase I buffer (provided with the kit) was incubated at 37° C. for 30 min. Two μl of various concentrations of drug was added, and the incubation was continued for another 30 min. The reactions were terminated by addition of SDS to 1%. Proteinase K was added to the reaction mixtures to ca. 50 μg/ml, and the reaction mixtures were incubated for 15-20 min at 56° C. After adding 0.1 volume of 10×gel loading buffer, the reaction mixtures were extracted with an equal volume of CIA (Chloroform:isoamyl Alcohol; 24:1). The samples were loaded on an 1% agarous gel that was cast in TPE buffer (36 mM Tris-HCl, pH 7.8, 1 mM EDTA, 30 mM NaH2PO4) and 0.2 μg/ml Chloroquine. The gel was run in TPE buffer at room temperature at 10 volts for 20 h, destained in water for 15 min, stained in 0.05 μg/ml ethidium bromide for 15 min, and destained again in water for 15 min. The gel was then photographed, scanned by FluoroImager, and analyzed by ImageQuaNT software (Molecular Dynamics).

[4] = tested on: HT-29 colon; assay: Cancer cell growth inhibition assay (MTT); assay type: cell-based, human
Experimental: as §1

[5] = tested on: H226 non-small-cell lung; assay: Cancer cell growth inhibition assay (MTT); assay type: cell-based, human
Experimental: as §1

[6] = tested on: DU-145 prostate; assay: Cancer cell growth inhibition assay (MTT); assay type: cell-based, human
Experimental: as §1

[7] = tested on: MDA-231 breast; assay: Cancer cell growth inhibition assay (MTT); assay type: cell-based, human
Experimental: as §1

[8] = tested on: Raji lymphoma; assay: Cancer cell growth inhibition assay (MTT); assay type: cell-based, human
Experimental: as §1

[9] = tested on: human telomerase; assay: Telomerase inhibition assay (HeLa cell extract); assay type: biochemical
Experimental: The assay used crude HeLa cell extract as the source of human telomerase. It measures the incorporation of ^32P-labeled dGTP into the primer extension of human telomere synthesis (Sun et al., 1998). […] Specific examples of such dual-acting compounds include compounds 2b and 2a (FIG. 3).
The assay was performed by using 5′-end biotinylated d[TTAGGG]3 as the telomere primer. Reaction mixtures (20 μl) containing 5 μl cell lysate (S-100), 50 mM Tris-OAc (pH 8.5), 50 mM K-OAc, 1 mM MgCl2, 5 mM BME, 1 mM spermidine, 1 μM telomere primer, 1.5 μM [α-^32P]-dGTP (800 Ci/mmol), 1 mM dATP, and 1 mM dTTP were incubated at 37° C. for 1 hr, and the reactions were terminated by adding 20 μl of […] streptavidin-coated Dynabeads suspension containing 10 mM Tris-HCl (pH 7.5), 1 mM EDTA, 2M KCl, and a 500 cpm biotinylated internal control. Streptavidin-coated Dynabeads bind selectively to the desired target (5′-biotinylated primer), forming a magnetic bead-targeted complex. The complex was separated from the suspension using a Dynal MPC magnet and washed several times with 2×SSC buffer containing 0.1% SDS to eliminate [α-^32P]-dGTP background. Telomerase reaction products were separated from the magnetic beads by protein denaturation with 5.7 M guanidine-HCl at 90° C. for 30 min. After ethanol precipitation, products were resolved on denaturating 10% polyacrylamide gel.

[10] = tested on: human DNA G-quadruplex d(TTAGGG)4; assay: NMR imino proton titration with G-quadruplex DNA; assay type: binding; details: overall stoichometry 1:1
Experimental: (C) Compounds may be selected for their ability to interact with human DNA G-quadruplex as indicated by NMR spectroscopy. The imino proton spectrum (9-12 ppm) of a solution of d(TTAGGG)4 in D2O/H2O (10:90) was determined at 500 MHz. Aliquot of N,N′-bis(2-piperdinoethyl)-3,4,9,10-perylenetetracarboxylic acid diimide were added and the imino proton spectrum recorded.

IC50 [1] [µM]	IC50 [2] [µM]	IC50 [4] [µM]	IC50 [5] [µM]	IC50 [6] [µM]	IC50 [7] [µM]	IC50 [8] [µM]	Compound	DNA unwinding concn [3] [µM]	telomerase inhibition (qualitative) [9]	upfield shift of G6 imino resonance [10] [ppm]
0.44	0.02 ± 0.006	0.023 ± 0.003	0.014 ± 0.002	0.03 ± 0.006	0.01 ± 0.002	0.029 ± 0.005	Cl.NC1CCN(c2c(F)cc3c(=O)c(C(=O)O)cn4c3c2Oc2cc3ccccc3cc2-4)C1 (stereo not drawn) [Compound 3c, 1-(3-Aminopyrrolidin-1-yl)-2-fluoro-4-oxo-4H-pyrido[3,2,1-k,l]-benzo[g]-phenoxazine-5-carboxylic Acid]	13	–	–
0.77	0.1 ± 0.01	0.028 ± 0.005	0.004 ± 0.002	0.025 ± 0.009	0.023 ± 0.004	0.038 ± 0.006	NC1CCN(c2c(F)cc3c(=O)c(C(=O)O)cn4c3c2Oc2cc3ccccc3cc2-4)C1 (racemic) [Compound 3a, 1-(3-Aminopyrrolidin-1-yl)-2-fluoro-4-oxo-4H-pyrido[3,2,1-k,l]-benzo[g]-phenoxazine-5-carboxylic Acid]	–	–	–
9.6	2.1 ± 0.3	2 ± 0.2	2.1 ± 0.2	0.84 ± 0.27	2.2 ± 0.3	0.8 ± 0.05	O=C(O)c1cn2c3c(c(N4CCNCC4)c(F)cc3c1=O)Oc1ccc3ccccc3c1-2 [Compound 4, 1-(Piperazin-1-yl)-2-fluoro-4-oxo-4H-pyrido[3,2,1-k,l]-benzo[h]phenoxazine-5-carboxylic Acid]	>100	–	–
0.64	0.045 ± 0.048	6.8 ± 1.8	> 100	0.075 ± 0.032	> 1000	0.0072 ± 0.0076	O=C(O)c1cn2c3c(c(N4CCNCC4)c(F)cc3c1=O)Oc1cc3ccccc3cc1-2 [Compound 6, 1-(Piperazin-1-yl)-2-fluoro-4-oxo-4H-pyrido[3,2,1-k,l]-benzo[g]phenoxazine-5-carboxylic Acid]	>100	–	–
1.84	0.65 ± 0.06	0.36 ± 0.09	0.2 ± 0.03	0.14 ± 0.04	0.38 ± 0.05	0.21 ± 0.04	O=C(O)c1cn2c3c(c(N4CCNCC4)c(F)cc3c1=O)Oc1c-2ccc2ccccc12 [Compound 5, 1-(Piperazin-1-yl)-2-fluoro-4-oxo-4H-pyrido[3,2,1-k,l]-benzo[f]phenoxazine-5-carboxylic Acid]	>100	–	–
0.42	0.14 ± 0.015	0.022 ± 0.003	0.022 ± 0.015	0.048 ± 0.008	0.021 ± 0.002	0.032 ± 0.005	Cl.NC1CCN(c2c(F)cc3c(=O)c(C(=O)O)cn4c3c2Oc2cc3ccccc3cc2-4)C1 (stereo not drawn) [Compound 3b, 1-(3-Aminopyrrolidin-1-yl)-2-fluoro-4-oxo-4H-pyrido[3,2,1-k,l]-benzo[g]-phenoxazine-5-carboxylic Acid]	15	–	–

Further lines, the compound ahead of its results:

Compound	IC50 [1] [µM]	IC50 [2] [µM]	IC50 [4] [µM]	IC50 [5] [µM]	IC50 [6] [µM]	IC50 [7] [µM]	IC50 [8] [µM]	DNA unwinding concn [3] [µM]	telomerase inhibition (qualitative) [9]	upfield shift of G6 imino resonance [10] [ppm]
Cl.NC1CCN(c2c(F)cc3c(=O)c(C(=O)O)cn4c3c2Oc2ccc3ccccc3c2-4)C1 (stereo not drawn) [Compound 1c, 1-(3-Aminopyrrolidin-1-yl)-2-fluoro-4-oxo-4H-pyrido[3,2,1-k,l]-benzo[h]-phenoxazine-5-carboxylic Acid]	0.72	0.13 ± 0.02	0.27 ± 0.04	0.13 ± 0.01	0.14 ± 0.01	0.19 ± 0.04	0.082 ± 0.008	19	–	–
Cl.NC1CCN(c2c(F)cc3c(=O)c(C(=O)O)cn4c3c2Oc2ccc3ccccc3c2-4)C1 (stereo not drawn) [Compound 1b, 1-(3-Aminopyrrolidin-1-yl)-2-fluoro-4-oxo-4H-pyrido[3,2,1-k,l]-benzo[h]-phenoxazine-5-carboxylic Acid]	1.22	0.68 ± 0.05	0.36 ± 0.04	2.4 ± 0.1	0.36 ± 0.12	0.35 ± 0.06	0.16 ± 0.07	35	–	–
Cl.NC1CCN(c2c(F)cc3c(=O)c(C(=O)O)cn4c3c2Oc2c-4ccc3ccccc23)C1 (racemic) [Compound 2a, 1-(3-Aminopyrrolidin-1-yl)-2-fluoro-4-oxo-4H-pyrido[3,2,1-k,l]-benzo[f]-phenoxazine-5-carboxylic Acid]	0.55	0.04 ± 0.004	0.03 ± 0.003	0.022 ± 0.002	0.017 ± 0.007	0.027 ± 0.002	0.018 ± 0.001	–	dual-acting	–
O=C1c2ccc3c4ccc5c6c(ccc(c7ccc(c2c37)C(=O)N1CCN1CCCCC1)c64)C(=O)N(CCN1CCCCC1)C5=O [N,N′-bis(2-piperdinoethyl)-3,4,9,10-perylenetetracarboxylic acid diimide]	–	–	–	–	–	–	–	–	–	> 0.2
Cl.NC1CCN(c2c(F)cc3c(=O)c(C(=O)O)cn4c3c2Oc2c-4ccc3ccccc23)C1 (stereo not drawn) [Compound 2c, 1-(3-Aminopyrrolidin-1-yl)-2-fluoro-4-oxo-4H-pyrido[3,2,1-k,l]-benzo[f]-phenoxazine-5-carboxylic Acid]	0.49	0.18 ± 0.02	0.051 ± 0.006	0.027 ± 0.004	0.064 ± 0.007	0.084 ± 0.007	0.02 ± 0.004	10	–	–
NC1CCN(c2c(F)cc3c(=O)c(C(=O)O)cn4c3c2Oc2ccc3ccccc3c2-4)C1 (racemic) [Compound 1a, 1-(3-Aminopyrrolidin-1-yl)-2-fluoro-4-oxo-4H-pyrido[3,2,1-k,l]-benzo[h]-phenoxazine-5-carboxylic Acid]	0.77	0.44 ± 0.06	0.18 ± 0.01	0.14 ± 0.01	0.2 ± 0.03	0.15 ± 0.04	0.086 ± 0.006	–	–	–
